Legend:
[1] = tested on: MM1.S (multiple myeloma) cells; assay: In vitro cell proliferation, MM1.S (CELL TITER GLO); type: cell-based; settings: Homo sapiens, 72 hours, read-out: Prolif MM1S ATP (EC50)
Protocol: (§1) BaF3 parental line was obtained from the DSMZ repository. BaF3 lines transfected with PIM1 or PIM2 were generated. Mouse IL-3 was purchased from R&D Systems. G418 was purchased from Clontech. Media for BaF3 parental line contained RPMI, 10% FBS, 2 mM L-Glutamine, 2 ng/mL mIL-3. Media for BaF3 PIM1 & 2 lines contained RPMI, 10% FBS, 2 mM L-Glutamine, […]. Media for MM1.S (multiple myeloma cells) line contained RPMI, 10% FBS, 2 mM L-Glutamine.
(§2) BaF3, a murine interleukin-3 dependent pro-B cell line, parental cells, BaF3 PIM1 cells, BaF3 PIM2 cells, and MM1.S (multiple myeloma) cells were seeded at 2 k/well, 5 k/well, 5 k/well, and 10 k/well respectively, in a 384-well plate, at 45 μL/well. Test compound was added at 5 μL/well. BaF3 cells (parental and transfected) were incubated overnight, while MM1.S cells were incubated for 72 hours at 37° C., 5% CO2. CELL TITER GLO® Reagent (Promega) was added at 50 μL/well, the plates were incubated for 30 minutes, and their luminescence read on an HT Analyst. IC50/EC50 values for the test compound were calculated.

[2] = molecular target: PIM1 (Homo sapiens (Human), UniProt P11309); assay: Pim kinase binding activity (PIM1 LC3K Ki); type: biochemical; settings: 20 pM PIM1, 10 μM ATP, 90 minutes
Sequence of PIM1 (P11309 whole entry, the tested form may be a part): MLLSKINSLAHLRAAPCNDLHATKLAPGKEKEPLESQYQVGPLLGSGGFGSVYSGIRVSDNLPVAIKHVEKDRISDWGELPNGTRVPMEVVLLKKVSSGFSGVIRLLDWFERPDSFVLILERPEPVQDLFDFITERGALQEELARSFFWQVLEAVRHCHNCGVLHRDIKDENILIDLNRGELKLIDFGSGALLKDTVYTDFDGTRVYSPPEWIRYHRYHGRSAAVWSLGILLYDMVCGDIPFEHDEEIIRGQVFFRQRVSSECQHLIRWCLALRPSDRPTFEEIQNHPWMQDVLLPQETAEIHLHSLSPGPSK
Protocol: PIM-1, -2, and -3 enzymes were generated as fusion proteins expressed in bacteria and purified by IMAC column chromatography (Sun, X., Chiu, J. F., and He, Q. Y. (2005) Expert Rev. Proteomics, 2:649-657). A fluorescent-labeled Pim-specific peptide substrate, was custom synthesized by American Peptide Company (Sunnyvale, Calif.). Reaction Buffer contained 10 mM HEPES, pH 7.2, 10 mM MgCl2, 0.01% Tween 20, 2 mM DTT. Termination Buffer contained 190 mM HEPES, pH 7.2, 0.015% Brij-35, 0.2% Coating Reagent 3 (Caliper Life Sciences, Hopkinton, Mass.), 20 mM EDTA. Separation Buffer contained 100 mM HEPES, pH 7.2, 0.015% Brij-35, 0.1% Coating Reagent 3, 1:200 Coating Reagent 8 (Caliper Life Sciences, Hopkinton, Mass.), 10 mM EDTA and 5% DMSO.
PIM reactions were carried out in a final volume of 10 μL per well in a 384-well plate. A standard enzymatic reaction, initiated by the addition of 5 μL 2×ATP and test compound to 5 μL of 2× enzyme and FAM-peptide, contained 20 pM PIM1, 50 pM PIM2, or 55 pM PIM3, 1 μM FAM-peptide, and 10 μM ATP, in Reaction Buffer. After 90 minutes of incubation at room temperature, the phosphorylation reaction was stopped by the addition of 10 μL Termination Buffer. The product and substrate in each independent reaction were separated on a 12-sipper microfluidic chip (Caliper Life Sciences, Hopkinton, Mass.) run on a Caliper LC3000® (Caliper Life Sciences, Hopkinton, Mass.). The separation of product and substrate was optimized by choosing voltages and pressure using Caliper's Optimizer software (Hopkinton, Mass.). The separation conditions used a downstream voltage of −500V, an upstream voltage of −2150V, and a screening pressure of −1.2 psi. The product and substrate fluorophore were excited at 488 nm and detected at 530 nm. Substrate conversion was calculated from the electropherogram using HTS Well Analyzer software (Caliper Life Sciences, Hopkinton, Mass.). Ki values for the test compound were calculated. See Table 1 for representative PIM1 LC3K Ki in micromolar values of exemplary compounds.

[3] = tested on: BaF3 PIM1 cells; assay: In vitro cell proliferation, BaF3 transfected with PIM1; type: cell-based, murine; settings: Mus musculus; BaF3 PIM1 line, incubated overnight; read-out: Prolif BaF3 PIM1 (IC50)
Protocol: as §1, §2

[4] = tested on: BaF3 parental cells; assay: In vitro cell proliferation, BaF3 parental line + IL3; type: cell-based, murine; settings: Mus musculus; BaF3 parental line with mIL-3, incubated overnight; read-out: Prolif BaF3 + IL3 (IC50)
Protocol: as §1, §2

Row | SMILES | EC50 [1] [nM] | Ki [2] [nM] | IC50 [3] [nM] | IC50 [4] [nM]
1 | Cn1ncc(NC(=O)c2csc(-c3c(F)cc4c(c3F)OCC[C@H]4O)n2)c1[C@@H]1CC[C@@H](N)[C@H](F)CO1 [Example 112, N-(5-((2S,5R,6S)-5-amino-6-fluorooxepan-2-yl)-1-methyl-1H-pyrazol-4-yl)-2-((R)-6,8-difluoro-4-hydroxychroman-7-yl)thiazole-4-carboxamide] | 202 | 0.004 | 118 | > 25000
2 | Cn1ncc(NC(=O)c2csc(-c3n[nH]c4c3CCC4)n2)c1[C@@H]1CC[C@@H](N)[C@H](F)CO1 [Example 113, N-[5-[(2S,5R,6S)-5-amino-6-fluoro-oxepan-2-yl]-1-methyl-pyrazol-4-yl]-2-(1,4,5,6-tetrahydrocyclopenta[c]pyrazol-3-yl)thiazole-4-carboxamide] | 906 | 0.03 | 327 | 13600
3 | N[C@H]1CC[C@H](c2c(NC(=O)c3ccc(F)c(-c4c(F)cccc4F)n3)cnn2C2CC2)OC[C@@H]1F [Example 114, N-[5-[(2R,5S,6R)-5-amino-6-fluoro-oxepan-2-yl]-1-cyclopropyl-pyrazol-4-yl]-6-(2,6-difluorophenyl)-5-fluoro-pyridine-2-carboxamide] | 443 | 0.173 | 75.1 | 10100
4 | CO[C@H]1[C@H](N)CC[C@@H](c2c(NC(=O)c3csc(-c4c(F)cccc4F)n3)cnn2C)O[C@H]1C [Example 117, N-[5-[(2S,5R,6S,7S)-5-amino-6-methoxy-7-methyl-oxepan-2-yl]-1-methyl-pyrazol-4-yl]-2-(2,6-difluorophenyl)thiazole-4-carboxamide] | 53.9 | 0.0325 | 14 | 6900
5 | CO[C@H]1[C@H](N)CC[C@@H](c2c(NC(=O)c3csc(-c4c(F)cccc4F)n3)cnn2C)O[C@@H]1C [Example 118, N-(5-((2S,5R,6S,7R)-5-amino-6-methoxy-7-methyloxepan-2-yl)-1-methyl-1H-pyrazol-4-yl)-2-(2,6-difluorophenyl)thiazole-4-carboxamide] | 67.3 | 0.006 | 8.95 | 2500
6 | COc1cnc(-c2nc(C(=O)Nc3cnn(C)c3[C@@H]3CC[C@@H](N)[C@H](F)CO3)cs2)c(C)c1 [Example 119, N-[5-[(2S,5R,6S)-5-amino-6-fluoro-oxepan-2-yl]-1-methyl-pyrazol-4-yl]-2-(5-methoxy-3-methyl-2-pyridyl)thiazole-4-carboxamide] | 407 | 0.043 | 49.2 | 2900
7 | Cn1ncc(NC(=O)c2csc(-c3cccc4cccnc34)n2)c1[C@@H]1CC[C@@H](N)[C@H](F)CO1 [Example 120, N-[5-[(2S,5R,6S)-5-amino-6-fluoro-oxepan-2-yl]-1-methyl-pyrazol-4-yl]-2-(8-quinolyl)thiazole-4-carboxamide] | 228 | 1.79 | 563 | 2300
8 | C[C@@H]1O[C@H](c2c(NC(=O)c3csc(-c4c(F)cccc4F)n3)cnn2C)CC[C@@H](N)[C@H]1F [Example 121, N-(5-((2S,5R,6R,7S)-5-amino-6-fluoro-7-methyloxepan-2-yl)-1-methyl-1H-pyrazol-4-yl)-2-(2,6-difluorophenyl)thiazole-4-carboxamide] | 376 | 0.0049 | 12.2 | 14200
9 | Cn1ncc(NC(=O)c2csc(-c3cn4ccnc4cn3)n2)c1[C@@H]1CC[C@@H](N)[C@H](F)CO1 [Example 122, N-(5-((2S,5R,6S)-5-amino-6-fluorooxepan-2-yl)-1-methyl-1H-pyrazol-4-yl)-2-(imidazo[1,2-a]pyrazin-6-yl)thiazole-4-carboxamide] | 600 | 0.025 | 184 | 12500

Reference: patent US9963446B2, “Oxepan-2-yl-pyrazol-4-yl-heterocyclyl-carboxamide compounds and methods of use” (Genentech, Inc., priority 2014, dated 2018)
